Measured values reported in US20160136194A1, “Pharmaceutical composition comprising a proton pump inhibitor and a prebiotic for the treatment of ulcerous lesions of the stomach and duodenum” (priority 2010, published 2016).

What was measured:
[1] = test system: Helicobacter pylori; assay: Cytological test of the biopsy material of the gastric mucosa; type: in vivo; settings: share of patients positive, n = 10
Text: (§1) There were enrolled 80 patients aged 19 to 57 years in the study: males and females with newly diagnosed gastric and duodenal ulcer, five from them with Zollinger-Ellison syndrome.
(§2) All patients were divided into 8 groups of 10 patients each, 4 groups of them were experimental: the declared dosage forms on the base of PPI and prebiotic were orally administered by them. For the first group active components of the composition were omeprazole and a lactulose; for the second group—pantoprazole and prebiotic lactitol; for the third group—lansoprazole, and prebiotic inulin; for the fourth group—rabeprazole and prebiotic amino acids (glutamic acid). 5th, 6th, 7th and 8th groups were control: patients of the 5th group received monotherapy by omeprazole; patients of the 6th group—by lansoprazole; patients of the 7th group—esomeprazole and patients of the 8th group of patients received standard therapy for the elimination of H. pylori: omeprazole, metronidazole and clarithromycin.
(§3) All patients received treatment according to the similar regimen: took the composition of PPI and prebiotic 1-2 times a day within 14 days.
1. Cytological and histological examination of imprint smear of the biopsy material of the gastric antrum mucosa, obtained by gastroscopy. Thus, microcolonies of Helicobacter pylori are detected using special stain.

[2] = test system: Helicobacter pylori; assay: Urease test of gastric mucosa biopsy material; type: in vivo; settings: share of patients positive, n = 10
Text: as §1, §2, §3
2. Urease test. The biopsy material of the gastric mucosa was examinated for the presence of the urease—enzyme specific for Helicobacter pylori (Helicobacter Test INFAI).

[3] = test system: Helicobacter pylori; assay: Microbiological method: isolation of H. pylori culture from patient material, before and after therapy; type: in vivo; settings: share of patients positive, n = 10
Text: as §1, §2, §3
4. Microbiological method. Inoculation and isolation of pure culture of H. pylori from the biopsy material of the mucosa, obtained by gastroduodenoscopy.
Before the beginning and after the termination of the eradication therapy all 80 patients have been enrolled in the clinical trials were microbiologically tested on the presence of H. pylori, lactobacilli and bifidobacteria in the stomach and duodenum content.
The material was analyzed in microbiological laboratory of the Pasteur Institute of Epidemiology and Microbiology, St. Petersburg.
Strains of H. pylori were identified on the base of analysis of colony and cell morphology, cultural, biochemical and tinctorial properties of microorganisms. Lactobacillus strains isolated in the material from the intestine additionally were identified on catalase and oxidase activity.
The bacterium quantity in the material was estimated by calculation of colonies on dense nutrient mediums that were represented in the form of Ig CFU/ml.

[4] = test system: gastric acid secretion; settings: compared with PPI of the first generation; cited from earlier work
[5] = after therapy (1-2 times a day, 14 days)

Row | Compound | Cytological test of the biopsy material of the gastric mucosa ([1]; after therapy (14 days)) | Cytological test of the biopsy material of the gastric mucosa ([1]; before therapy) | Urease test ([2]; after therapy (14 days)) | Urease test ([2]; before therapy) | Isolation of Helicobacter pylori from stomach content [3, 5] | Isolation of Helicobacter pylori from stomach content ([3]; before therapy, peptic ulcer) | Kept pH value <4 in stomach, above PPI of the first generation [4]
1 | COc1ccc2[nH]c([S+]([O-])Cc3ncc(C)c(OC)c3C)nc2c1 (stereo not shown) [5th group, omeprazole] | 40% | 80% | 30% | 70% | 50% | 100% | 
2 | Cc1c(OCC(F)(F)F)ccnc1C[S+]([O-])c1nc2ccccc2[nH]1 (stereo not shown) [6th group, lansoprazole] | 40% | 60% | 60% | 70% | 60% | 100% | 
3 | COc1ccc2nc([S@@+]([O-])Cc3ncc(C)c(OC)c3C)[nH]c2c1 [7th group, esomeprazole] | 40% | 70% | 40% | 60% | 50% | 100% | 10-15%
